Several values for one entry are separate records, joined by “and”; a condition that tells them apart may be missing. Equal entries are not always repeated. ± gives the expanded uncertainty stated by the source.
Test: molar heat capacity at constant pressure
Details: 101.33 kPa, Crystal 1, Vacuum adiabatic calorimetry

[Al+3].[Al+3].[Co+2].[O-2].[O-2].[O-2].[O-2] [aluminium cobalt oxide]
Details | molar heat capacity at constant pressure
47.17 K | 7.42 ± 0.15 J/K/mol
47.58 K | 7.59 ± 0.16 J/K/mol
48.91 K | 7.98 ± 0.16 J/K/mol
50 K | 8.31 ± 0.17 J/K/mol
50.03 K | 8.32 ± 0.05 J/K/mol
50.67 K | 8.52 ± 0.05 J/K/mol
52.44 K | 9.07 ± 0.06 J/K/mol
52.51 K | 9.11 ± 0.06 J/K/mol
54.22 K | 9.63 ± 0.06 J/K/mol
55 K | 9.96 ± 0.06 J/K/mol
55.03 K | 9.97 ± 0.06 J/K/mol
56.02 K | 10.33 ± 0.06 J/K/mol
57.57 K | 10.87 ± 0.06 J/K/mol
57.82 K | 10.96 ± 0.06 J/K/mol
59.64 K | 11.67 ± 0.07 J/K/mol
60 K | 11.79 ± 0.07 J/K/mol
60.15 K | 11.85 ± 0.07 J/K/mol
61.46 K | 12.35 ± 0.07 J/K/mol
62.75 K | 12.88 ± 0.07 J/K/mol
63.3 K | 13.11 ± 0.07 J/K/mol
65 K | 13.79 ± 0.07 J/K/mol
65.14 K | 13.85 ± 0.07 J/K/mol
65.38 K | 13.94 ± 0.07 J/K/mol
66.99 K | 14.6 ± 0.08 J/K/mol
68.03 K | 15.06 ± 0.08 J/K/mol
68.85 K | 15.41 ± 0.08 J/K/mol
70 K | 15.92 ± 0.08 J/K/mol
70.7 K | 16.23 ± 0.08 J/K/mol
70.71 K | 16.22 ± 0.08 J/K/mol
72.59 K | 17.07 ± 0.09 J/K/mol
73.39 K | 17.44 ± 0.09 J/K/mol
74.46 K | 17.93 ± 0.09 J/K/mol
75 K | 18.18 ± 0.09 J/K/mol
76.1 K | 18.69 ± 0.09 J/K/mol
76.35 K | 18.81 ± 0.09 J/K/mol
78.23 K | 19.67 ± 0.1 J/K/mol
78.83 K | 19.98 ± 0.1 J/K/mol
80 K | 20.58 ± 0.83 J/K/mol
80.13 K | 20.6 ± 0.1 J/K/mol
81.57 K | 21.31 ± 0.1 J/K/mol
82.03 K | 21.53 ± 0.1 J/K/mol
83.93 K | 22.47 ± 0.11 J/K/mol
84.33 K | 22.66 ± 0.11 J/K/mol
85 K | 23 ± 0.11 J/K/mol
85.84 K | 23.42 ± 0.11 J/K/mol
86.76 K | 23.89 ± 0.11 J/K/mol
87.1 K | 24.07 ± 0.12 J/K/mol
87.75 K | 24.35 ± 0.12 J/K/mol
89.66 K | 25.35 ± 0.12 J/K/mol
89.88 K | 25.48 ± 0.12 J/K/mol
90 K | 25.54 ± 0.19 J/K/mol
90.38 K | 25.72 ± 0.19 J/K/mol
91.58 K | 26.35 ± 0.19 J/K/mol
92.68 K | 26.93 ± 0.19 J/K/mol
93.5 K | 27.35 ± 0.19 J/K/mol
94.03 K | 27.61 ± 0.2 J/K/mol
95 K | 28.14 ± 0.2 J/K/mol
95.42 K | 28.36 ± 0.2 J/K/mol
95.49 K | 28.4 ± 0.2 J/K/mol
97.35 K | 29.35 ± 0.2 J/K/mol
97.7 K | 29.56 ± 0.2 J/K/mol
98.31 K | 29.91 ± 0.2 J/K/mol
99.28 K | 30.41 ± 0.2 J/K/mol
100 K | 30.76 ± 0.2 J/K/mol
101.14 K | 31.29 ± 0.21 J/K/mol
101.4 K | 31.39 ± 0.21 J/K/mol
105 K | 33.58 ± 0.21 J/K/mol
105.11 K | 33.64 ± 0.21 J/K/mol
108.84 K | 35.84 ± 0.22 J/K/mol
110 K | 36.47 ± 0.22 J/K/mol
112.59 K | 37.85 ± 0.23 J/K/mol
116.35 K | 39.89 ± 0.23 J/K/mol
118.19 K | 40.87 ± 0.24 J/K/mol
120 K | 41.53 ± 0.24 J/K/mol
120.13 K | 41.61 ± 0.24 J/K/mol
121.04 K | 42.24 ± 0.24 J/K/mol
123.91 K | 44.18 ± 0.25 J/K/mol and 44.16 ± 0.25 J/K/mol
126.79 K | 45.8 ± 0.25 J/K/mol
127.71 K | 46.35 ± 0.25 J/K/mol
129.67 K | 47.46 ± 0.26 J/K/mol
130 K | 47.65 ± 0.26 J/K/mol
131.52 K | 48.53 ± 0.26 J/K/mol
132.55 K | 49.08 ± 0.26 J/K/mol
135.33 K | 50.7 ± 0.27 J/K/mol
135.44 K | 50.72 ± 0.27 J/K/mol
138.34 K | 52.33 ± 0.28 J/K/mol
139.16 K | 52.77 ± 0.28 J/K/mol
140 K | 53.26 ± 0.28 J/K/mol
141.23 K | 53.98 ± 0.28 J/K/mol
142.99 K | 55.02 ± 0.28 J/K/mol
144.14 K | 55.61 ± 0.29 J/K/mol
